From patent US20230183239A1, “ECTONUCLEOTIDE PYROPHOSPHATASE-PHOSPHODIESTERASE 1 (ENPP-1) INHIBITORS AND USES THEREOF” (AbbVie Inc., priority 2017, published 2023)

What was measured:
Format in all cases: biochemical
[1] = target: T1, ENPP1 (Homo sapiens, UniProt P22413); experiment: Substrate selectivity ratio, inhibition of cGAMP hydrolysis versus ATP hydrolysis; conditions: ratio Ki AMP-pNP / Ki cGAMP
T1 sequence (P22413 1-925): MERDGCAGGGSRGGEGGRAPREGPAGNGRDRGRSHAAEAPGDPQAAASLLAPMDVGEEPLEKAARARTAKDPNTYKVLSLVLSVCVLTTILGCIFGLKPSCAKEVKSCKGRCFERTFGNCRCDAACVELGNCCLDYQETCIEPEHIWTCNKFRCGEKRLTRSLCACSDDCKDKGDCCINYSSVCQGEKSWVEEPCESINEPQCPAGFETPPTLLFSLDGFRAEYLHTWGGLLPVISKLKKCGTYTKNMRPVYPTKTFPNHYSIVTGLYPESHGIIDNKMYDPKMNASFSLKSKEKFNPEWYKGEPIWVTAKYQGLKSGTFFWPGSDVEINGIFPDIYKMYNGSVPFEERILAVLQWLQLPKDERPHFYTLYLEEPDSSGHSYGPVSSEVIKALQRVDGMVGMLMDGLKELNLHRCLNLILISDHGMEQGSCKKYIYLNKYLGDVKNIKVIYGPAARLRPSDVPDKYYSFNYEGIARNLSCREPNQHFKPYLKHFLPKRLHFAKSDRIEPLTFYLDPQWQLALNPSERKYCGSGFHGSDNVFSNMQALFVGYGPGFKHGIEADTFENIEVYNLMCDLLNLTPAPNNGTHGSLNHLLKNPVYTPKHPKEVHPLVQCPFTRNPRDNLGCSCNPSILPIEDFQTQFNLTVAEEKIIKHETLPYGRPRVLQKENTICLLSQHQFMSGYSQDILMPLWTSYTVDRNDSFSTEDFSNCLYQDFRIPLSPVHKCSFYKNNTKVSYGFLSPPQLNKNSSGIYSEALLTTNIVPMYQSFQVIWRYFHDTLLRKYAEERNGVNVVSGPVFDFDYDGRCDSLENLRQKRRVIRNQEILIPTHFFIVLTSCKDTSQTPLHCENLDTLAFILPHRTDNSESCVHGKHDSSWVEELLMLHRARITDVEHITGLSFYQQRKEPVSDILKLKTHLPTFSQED
Experimental: The selectivity ratios for inhibition of cGAMP hydrolysis versus ATP hydrolysis were then calculated as follows: […]

[2] = target: T1, ENPP1; experiment: ENPP1 enzyme assay with AMP-pNP substrate (hydrolysis of ATP analog); conditions: AMP-pNP substrate (ATP analog); Ki from IC50 by Cheng-Prusoff; read-out: ENPP1 Inhibition _AMP-pNP: Ki
Outline: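 Human recombinant ENPP1 (60 ng/well) with 300 µM AMP-pNP in 50 mM Tris-HCl pH 8.5, 250 mM NaCl, 0.5 mM CaCl2, 1 µM ZnCl2, 0.1% DMSO, 20 min at 37 °C.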

[3] = target: T1, ENPP1; experiment: Indirect quantitation of 2',3'-cGAMP hydrolysis (AMP-Glo Assay kit); conditions: cGAMP substrate; Ki from IC50 by Cheng-Prusoff; read-out: ENPP1 Inhibition -cGAMP: Ki

Compound | Substrate Selectivity: Ki_AMP-pNP/Ki_cGAMP [1] | Ki [2] | Ki [3]
NS(=O)(=O)N1CCc2ccc(-c3ccnc4cc(F)ccc34)cc2C1 [Example 311, 7-(7-fluoroquinolin-4-yl)-3,4-dihydroisoquinoline-2(1H)-sulfonamide] | >133 | > 1000 nM | < 100 nM
COc1cc2ncc(F)c(-c3ccc(CNS(N)(=O)=O)cc3)c2cc1OC [Example 67, N-(4-(3-fluoro-6,7-dimethoxyquinolin-4-yl)benzyl)sulfamide] | 67.2 | < 100 nM | < 100 nM
COc1cc2ncc(C#N)c(-c3ccc4c(c3)CN(S(N)(=O)=O)CC4)c2cc1F [Example 316, 7-(3-cyano-6-fluoro-7-methoxyquinolin-4-yl)-3,4-dihydroisoquinoline-2(1H)-sulfonamide] | >533 | > 1000 nM | < 100 nM
COc1cc2nccc(-c3ccc4c(c3)CN(S(N)(=O)=O)CC4)c2cc1OC [Example 148, 7-(6,7-dimethoxyquinolin-4-yl)-3,4-dihydroisoquinoline-2(1H)-sulfonamide] | 10.1 | < 100 nM | < 100 nM
COc1cc2ccc(=O)n(Cc3ccc(NS(N)(=O)=O)cc3)c2cc1OC [Example 126, N-(4-((6,7-dimethoxy-2-oxoquinolin-1(2H)-yl)methyl)phenyl) sulfamide] | >134 | > 1000 nM | 100 to 1000 nM
COc1cc2ncnc(N3CCC(CCN)CC3)c2cc1OC [Example 334, 2-(1-(6,7-dimethoxyquinazolin-4-yl)piperidin-4-yl)ethan-1-amine] | >414 | > 1000 nM | < 100 nM
COc1cc2nccc(Oc3ccc(NS(N)(=O)=O)cc3)c2cn1 [Example 330, N-(4-((7-methoxy-1,6-naphthyridin-4-yl)oxy)phenyl)sulfamide] | 35 | 100 to 1000 nM | < 100 nM
COc1cc2ncn(-c3ccc(CNS(N)(=O)=O)cc3)c2cc1OC [Example 120, N-(4-(5,6-dimethoxy-1H-benzo[d]imidazol-1-yl)benzyl)sulfamide] | 54.5 | > 1000 nM | < 100 nM
COc1ccc2c(Oc3ccc(NS(N)(=O)=O)c(C#N)c3)ccnc2c1 [Example 315, N-(2-cyano-4-((7-methoxyquinolin-4-yl)oxy)phenyl)sulfamide] | >49.7 | > 1000 nM | < 100 nM
COc1cc2nccc(N3CCC4(CC3)CCN(S(N)(=O)=O)C4)c2cc1OC [Example 160, 8-(6,7-dimethoxyquinolin-4-yl)-2,8-diazaspiro[4.5]decane-2-sulfonamide] | 13.9 | < 100 nM | < 100 nM
COc1cc2ncnc(N3CCC(CNS(N)(=O)=O)CC3)c2cc1OC [Example 339, N-((1-(6,7-dimethoxyquinazolin-4-yl)piperidin-4-yl)methyl)sulfamide] | 38.5 | 100 to 1000 nM | < 100 nM
COc1cc2nccc(N3CCC(CCNS(N)(=O)=O)CC3)c2cc1F [Example 220, N-(2-(1-(6-fluoro-7-methoxyquinolin-4-yl)piperidin-4-yl)ethyl)sulfamide] | 35.9 | 100 to 1000 nM | < 100 nM
COc1cc2c(N3CCC(CCNS(N)(=O)=O)CC3)ncnc2cn1 [Example 189, N-(2-(1-(6-methoxypyrido[3,4-d]pyrimidin-4-yl)piperidin-4-yl)ethyl)sulfamide] | > 27.0 | > 1000 nM | 100 to 1000 nM
COc1cc2nccc(-c3ccc(CNS(N)(=O)=O)c(F)c3)c2cc1OC [Example 69, N-(4-(6,7-dimethoxyquinolin-4-yl) -2-fluorobenzyl)sulfamide] | 8.9 | < 100 nM | < 100 nM
COc1cc2nccc(NC3CCC(NS(N)(=O)=O)CC3)c2cc1OC (stereo not drawn) [Example 307, N-(4-((6,7-dimethoxyquinolin-4-yl)amino)cyclohexyl)sulfamide] | >15.5 | > 1000 nM | 100 to 1000 nM
COc1cc2nccc(OC3CCC(NS(N)(=O)=O)C3)c2cc1OC (stereo not drawn) [Example 213, N-(3-((6,7-dimethoxyquinolin-4-yl)oxy)cyclopentyl)sulfamide] | 33.0 | > 1000 nM | < 100 nM
NS(=O)(=O)N1CCC2(CCN(c3ccnc4cc(OC(F)F)ccc34)CC2)C1 [Example 265, 8-(7-(difluoromethoxy)quinolin-4-yl)-2,8-diazaspiro[4.5]decane-2-sulfonamide] | >13.0 | > 1000 nM | 100 to 1000 nM
COc1cc2ncnc(-c3ccc(CCNS(N)(=O)=O)cc3)c2cc1OC [Example 145, N-(4-(6,7-dimethoxyquinazolin-4-yl)phenethyl)sulfamide] | 20.7 | 100 to 1000 nM | < 100 nM
COc1ccc2c(N3CCc4cc(NS(N)(=O)=O)ccc43)ccnc2c1 [Example 59, N-(1-(7-methoxyquinolin-4-yl)indolin-5-yl)sulfamide] | 29.6 | < 100 nM | < 100 nM
Cn1c(=O)[nH]c2ncnc(N3CCC(CCNS(N)(=O)=O)CC3)c21 [Example 141, N-(2-(1-(7-methyl-8-oxo-8,9-dihydro-7H-purin-6-yl)piperidin-4-yl)ethyl)sulfamide] | >929 | > 1000 nM | < 100 nM
COc1ccc2c(Oc3ccc(NS(N)(=O)=O)cc3F)ccnc2c1 [Example 71, N-(3-fluoro-4-((7-methoxyquinolin-4-yl)oxy)phenyl)sulfamide] | 13.3 | < 100 nM | < 100 nM

Further lines, results first:

Substrate Selectivity: Ki_AMP-pNP/Ki_cGAMP [1] | Ki [2] | Ki [3] | Compound
>227 | > 1000 nM | 100 to 1000 nM | COc1ccc2c(-c3ccc(CCNS(N)(=O)=O)cc3)ccnc2c1 [Example 403, N-(4-(7-methoxyquinolin-4-yl)phenethyl)sulfamide]
42 | 100 to 1000 nM | < 100 nM | COc1ccc2c(N3CCc4cc(NS(N)(=O)=O)ccc43)c(C)cnc2c1 [Example 378, N-(1-(7-methoxy-3-methylquinolin-4-yl)indolin-5-yl)sulfamide]
>153 | > 1000 nM | 100 to 1000 nM | COc1ccc2c(-n3cc(Cl)c4cc(NS(N)(=O)=O)ccc43)ccnc2c1 [Example 413, N-(3-chloro-1-(7-methoxyquinolin-4-yl)-1H-indol-5-yl)sulfamide]
39 | 100 to 1000 nM | < 100 nM | COc1ccc2c(-c3ccc(CNS(N)(=O)=O)cc3)c(C(F)(F)F)cnc2c1 [Example 386, N-(4-(7-methoxy-3-(trifluoromethyl)quinolin-4-yl)benzyl) sulfamide]
>13 | 100 to 1000 nM | < 100 nM | COc1ccc2c(Oc3ccc(NS(N)(=O)=O)cc3)cc(C)nc2c1 [Example 397, N-(4-((7-methoxy-2-methylquinolin-4-yl)oxy)phenyl)sulfamide]
>31 | 100 to 1000 nM | < 100 nM | COc1cc2ncc(C#N)c(-c3ccc(CNS(N)(=O)=O)cc3)c2cc1F [Example 395, N-(4-(3-cyano-6-fluoro-7-methoxyquinolin-4-yl)benzyl)sulfamide]
>74 | > 1000 nM | 100 to 1000 nM | COc1ccc2c(Oc3ccc(NS(N)(=O)=O)cc3C#N)ccnc2c1 [Example 353]
>35 | > 1000 nM | < 100 nM | COc1cc2nccc(-c3ccc4c(c3)CCN(S(N)(=O)=O)C4)c2cc1OC [Example 367, 6-(6,7-dimethoxyquinolin-4-yl)-3,4-dihydroisoquinoline-2(1H)-sulfonamide]
>70 | > 1000 nM | < 100 nM | COc1ccc2c(-c3ccc(CNS(N)(=O)=O)cc3Cl)ccnc2c1 [Example 419, N-(3-chloro-4-(7-methoxyquinolin-4-yl)benzyl)sulfamide]
